{"source": "patent US20220000872A1", "about": "“METHOD OF ENHANCING IMMUNE-BASED THERAPY” (OncoTracker, Inc., priority 2018, published 2022)", "key": {"PD-L1 protein expression": {"system": "PD-L1 protein expression", "experiment": "PD-L1 protein expression on MM cells by flow cytometry, BMMCs co-cultured with HS-5 stromal cells", "format": "cell-based, human", "details": "fresh MM BMMCs co-cultured with HS-5, 72 hours", "experimental": "To investigate the effects of RUX on PD-L1 protein expression on myeloma cell membranes, fresh MM BMMCs were isolated from MM patients and co-cultured with stromal cells (HS-5, ATCC). After 72 hours, cells were fixed using 2% paraformaldehyde for 30 minutes on ice and washed with PBS twice. The cells were stained with anti-PD-L1 antibody conjugated with PE and anti-CD138 antibody conjugated with FITC antibody for 2 hrs and analyzed by flow cytometry using a Beckman Coulter FC500 cytometer with Cytomics CXP software (Beckman Coulter, Fullerton, Calif.)."}, "[1]": {"system": "PD-1 expression on T-cells", "experiment": "PD-1 expression on T-cells (Example 11)", "format": "cell-based"}, "B7-H3": {"system": "B7-H3", "experiment": "B7-H3 expression (qRT-PCR, flow cytometry, western blot) in MM cells (Example 12)", "format": "cell-based, human", "experimental": "(§1) Bone marrow mononuclear cells (BMMCs) were collected from MM patients after obtaining IRB approval. Single-cell suspensions were prepared from human MM LAGλ-1A xenografts which had been grown in severe combined immunodeficient mice. HS-5 stromal and SUP-T1 T cells were purchased from ATCC. The cells were cultured and treated with or without RUX and then subjected to qRT-PCR, flow cytometric analysis, and western blot analysis. For qRT-PCR, total RNA was extracted and applied to cDNA synthesis, followed by qPCR. Gene expression was analyzed in MM BMMCs alone or co-cultured with stromal cells or T cells with or without Rux treatment (1 μM) in vitro."}, "PD-L2 gene expression [2]": {"system": "PD-L2 gene expression", "experiment": "PD-L2 gene expression (qPCR) in MM BMMCs co-cultured with THP-1 monocytes", "format": "cell-based, human", "details": "BMMCs from MM patient #3041 co-cultured with THP-1 monocytes, RUX 1 μM, 48 hours", "experimental": "MM patient #3041 bone marrow mononuclear cells were co-cultured with THP-1 monocytes with or without RUX (from […] to 10 μM) for 48 hours.\nNext, we investigated the effects of ruxolitinib (RUX) on PD-L1 and PD-L2 gene expression in MM bone marrow mononuclear cells (BMMCs) co-cultured with THP-1 monocytes. THP-1 monocytes co-cultured with primary BMMCs from MM patient #3041 were grown in the presence or absence of RUX (1 μM)."}, "[3]": {"system": "PD-L1 expression in the xenograft", "experiment": "PD-L1 expression in human MM xenograft LAGκ-2 in severe combined immune deficient mice", "format": "in vivo", "details": "LAGκ-2 in SCID mice; RUX 30 mg/kg; vs untreated control group", "experimental": "(§2) We further investigated the effects of RUX on PD-L1 and PD-L2 expression in primary and stromal cells from MM patients' BM samples in vitro. […] We then determined whether RUX can augment the anti-MM effects of T-cells in vitro. […] To evaluate the efficacy of drugs in vivo, severe combined immune deficient mice implanted with the human MM xenograft LAGκ-2 were treated with RUX (30 mg/kg)."}, "PD-L1 gene expression": {"system": "PD-L1 gene expression", "details": "MM patient; after 4 months of treatment vs before treatment; qPCR", "excerpt": "(§3) A second sample of BMMCs was collected after treatment with ruxolitinib, methylprednisolone, and lenalidomide."}, "PD-L2 gene expression [4]": {"system": "PD-L2 gene expression", "details": "MM patient; after 4 months of treatment vs before treatment; qPCR", "excerpt": "as §3"}, "IL-2 gene expression": {"system": "IL-2 gene expression", "experiment": "IL-2 gene expression in MMBM (Example 12)", "format": "cell-based, human", "experimental": "as §1\n(§4) Next, we tested whether B7-H3 blockade by Rux could potentially restore exhausted T cell activity against myeloma cells in MMBM."}, "MM cell": {"system": "MM cell", "experiment": "MM cell apoptosis in the presence of IL-2 stimulated T-cells (Example 11)", "format": "cell-based, human", "details": "RUX 0-5 μM; antibodies 0-10 μg/ml; concentration dependent", "experimental": "as §2, with “mg/kg). […] In contrast, RUX had no effect on PD-1 expression on T-cells.” for “mg/kg).”"}, "[5]": {"system": "Tumor cells from the LAGκ-1A human MM xenograft", "experiment": "Annexin V apoptosis assay of LAGκ-1A myeloma tumor cells with or without IL-2 pre-treated T-cells", "format": "cell-based", "details": "in the absence of T-cells", "experimental": "T-cells (SUP-T1, ATCC) were pre-treated with IL-2 (20 ng/ml) for 24 hours. In the RUX at 1 μM with anti-PD-L1 group, the antibody concentrations were varied as indicated on the x-axis but the RUX was tested at a fixed concentration (1 μM). For the anti-PD-L1 at 5 mg/mL with RUX group, the RUX concentrations were varied as on the x-axis but the anti-PD-L1 antibody was evaluated at a fixed concentration (5 mg/mL). Tumor cells from the LAGκ-1A human MM xenograft were single-cell suspended and co-cultured with T cells treated with either RUX (1 μM) and anti-PD-L1 antibody or RUX alone for 72 hours. Tumor cell apoptosis was measured using the Annexin V assay per the manufacturer's protocol (Biovision) followed with flow cytometric analysis (FC-500 cytometer using Cytometric CXP software, both Beckman Coulter).\nT-cells were pre-treated with IL-2 (20 ng/ml) for 24 hours. […] For the anti-PD-1 at 5 mg/mL with RUX group, the RUX concentrations were varied as on the x-axis but the anti-PD-1 antibody was evaluated at a fixed concentration (5 mg/mL). […] Tumor cell apoptosis was measured using the Annexin V assay per the manufacturer's protocol (Biovision) followed with flow cytometric analysis (FC-500 cytometer using Cytometric CXP software, both Beckman Coulter). […]"}, "MM cells": {"system": "MM cells", "experiment": "Dead MM cells by Trypan blue staining, BMMCs co-cultured with HS-5 stromal cells", "format": "cell-based, human", "details": "MM BMMCs co-cultured with HS-5"}, "CD8 gene expression": {"system": "CD8 gene expression", "experiment": "CD8 gene expression in MMBM (Example 12)", "format": "cell-based, human", "experimental": "as §1, §4"}}, "note": "Entries after “also recorded” stand apart in the source; their conditions may differ."}
{"smiles": "N#CC[C@H](C1CCCC1)n1cc(-c2ncnc3[nH]ccc23)cn1", "note": "[RUX, ruxolitinib]", "values": [{"measurement": "PD-L1-expressing MM tumor cells", "setting": "PD-L1 protein expression", "value": "reduced in a concentration dependent manner"}, {"measurement": "PD-1 expression on T-cells", "setting": "[1]", "value": "no effect"}, {"measurement": "B7-H3 expression in BM from patients in PD co-cultured with stromal cells (HS-5)", "setting": "B7-H3; after 48-72 hours, Rux 1 μM", "value": "significantly reduced"}, {"measurement": "B7-H3 expression in MM cells (U266)", "setting": "B7-H3; after 48-72 hours, Rux 1 μM", "value": "significantly reduced"}, {"measurement": "B7-H3 expression in MMBMMCs in patients with PD", "setting": "B7-H3; after 48-72 hours, Rux 1 μM", "value": "significantly reduced"}, {"measurement": "B7H3 expression in human MM xenograft model LAGλ-1A", "setting": "B7-H3; cultured ex vivo", "value": "decreased"}, {"measurement": "B7-H3 at protein levels", "setting": "B7-H3; flow cytometric analysis and western blotting", "value": "suppressed"}, {"measurement": "PD-L2 gene expression in MM BMMCs", "setting": "PD-L2 gene expression [2]", "value": "marked decrease; also recorded: inhibits"}, {"measurement": "PD-L1 expression in the xenograft", "setting": "[3]", "value": "significantly decreased"}, {"measurement": "PD-L1 gene expression in BMMCs", "setting": "PD-L1 gene expression", "value": "down-regulates"}, {"measurement": "PD-L2 gene expression in BMMCs", "setting": "PD-L2 gene expression [4]", "value": "down-regulates"}, {"measurement": "IL-2 gene expression in BM cocultured with T cells", "setting": "IL-2 gene expression; SUP-T1", "value": "elevated"}, {"measurement": "IL-2 gene expression in MMBM with lower plasma percentages", "setting": "IL-2 gene expression; plasma cell percentage <30%", "value": "increase"}, {"measurement": "increase of IL-2 gene expression in MMBM with higher plasma cell percentages", "setting": "IL-2 gene expression; plasma cell percentage >70%", "value": "not"}, {"measurement": "MM cell apoptosis in the presence of IL-2 stimulated T-cells", "setting": "MM cell", "value": "increased"}, {"measurement": "apoptosis of LAGκ-1A cells, single-agent treatment", "setting": "[5]", "value": "does not lead to significant apoptosis"}, {"measurement": "percentage of dead MM cells", "setting": "MM cells", "value": "increased in a concentration dependent fashion"}, {"measurement": "CD8 gene expression in BM cocultured with T cells", "setting": "CD8 gene expression; SUP-T1", "value": "elevated"}, {"measurement": "CD8 gene expression in MMBM with lower plasma percentages", "setting": "CD8 gene expression; plasma cell percentage <30%", "value": "increase"}]}
